Source: paper PMC8750527 (Cancers, 2021)

Legend:
HDF [1] = assay: MTT assay, 48 h exposure, human dermal fibroblasts; format: cell-based; conditions: Homo sapiens, HDF, Table 1, normal cells, mean ± SEM
Method: (§1) HDF (3000 cells), C8-D1A (5000 cells), D458 (5000 cells), DAOY (2000 cells), HD-MB03 (10,000 cells) and CHLA-01-Med (10,000 cells) were seeded at an approximate confluency of 50% in 96-well plates (Corning Inc., Corning, NY, USA) in 100 µL medium per well. A range from 50 nM to 150 µM of every drug was tested. The effects of the antiangiogenic compounds were measured using a 3-[4,5-dimethylthiazol-2yl]-diphenyltetrazolium bromide (MTT) colorimetric assay (Sigma, Lyon, France) according to the manufacturer’s instructions. When applicable, IC50 was calculated using the nonlinear regression method of the Prism 5 software (Graphpad Software Inc., San Diego, CA, USA). […] An MTT assay was conducted as described above to assess the fitness of the cells.

C8-D1A = assay: MTT assay, 48 h exposure, murine primary astrocytes; format: cell-based; conditions: Mus musculus, C8-D1A, Table 1, normal cells, mean ± SEM, read-out: IC50 (µM) C8D1A
Method: as §1

DAOY = assay: MTT assay, 48 h exposure, DAOY MB cells; format: cell-based, human; conditions: for IC50: Homo sapiens, Daoy, Table 1, MTT, 48 h exposure, mean ± SEM; for Specificity Index relative to C8D1A, DAOY: ratio IC50 C8-D1A / IC50 DAOY; for Specificity Index relative to HDF, DAOY: ratio IC50 HDF / IC50 DAOY
Method: as §1

HD-MB03 = assay: MTT assay, 48 h exposure, HD-MB03 MB cells; format: cell-based, human; conditions: for IC50: Homo sapiens, HD-MB03, Table 1, MTT, 48 h exposure, mean ± SEM; for Specificity Index relative to C8D1A, HDMB: ratio IC50 C8-D1A / IC50 HD-MB03; for Specificity Index relative to HDF, HD-MB03: ratio IC50 HDF / IC50 HD-MB03
Method: as §1

D458 = assay: MTT assay, 48 h exposure, D458 MB cells; format: cell-based, human; conditions: for IC50: Homo sapiens, Table 1, MTT, 48 h exposure, mean ± SEM; for Specificity Index relative to C8D1A, D458: ratio IC50 C8-D1A / IC50 D458; for Specificity Index relative to HDF, D458: ratio IC50 HDF / IC50 D458
Method: as §1

CHLA-01-Med = assay: MTT assay, 48 h exposure, CHLA-01-Med MB cells; format: cell-based, human; conditions: for IC50: Homo sapiens, Table 1, MTT, 48 h exposure, mean ± SEM; for Specificity Index relative to C8D1A, CHLA-01-Med: ratio IC50 C8-D1A / IC50 CHLA-01-Med; for Specificity Index relative to HDF, CHLA-01-Med: ratio IC50 HDF / IC50 CHLA-01-Med
Method: as §1

MB cells = assay: Cell viability, propidium iodine incorporation, MB cells; format: cell-based, human; conditions: 48 h, 5 µM
Method: (§2) Cell viability assays were conducted using a propidium iodine incorporation technique with an ADAM-sHIT automated cell counter (NanoEnTek, Gyeonggi-do, Korea) according to the manufacturer’s protocol.

HDF [2] = assay: Cell viability, propidium iodine incorporation, HDF; format: cell-based, human; conditions: 48 h; axitinib, cabozantinib 5 µM, etoposide 1 µM
Method: as §2

C8-D1A astrocytes = assay: Cell viability, propidium iodine incorporation, C8-D1A; format: cell-based, murine; conditions: 48 h; axitinib, cabozantinib, sunitinib 5 µM, etoposide 1 µM
Method: as §2

Row | Structure (SMILES) | IC50 (HDF [1]) [µM] | IC50 (C8-D1A) [µM] | IC50 (DAOY) [µM] | Specificity Index relative to C8D1A, DAOY (DAOY) | Specificity Index relative to HDF, DAOY (DAOY) | IC50 (HD-MB03) [µM] | Specificity Index relative to C8D1A, HDMB (HD-MB03) | Specificity Index relative to HDF, HD-MB03 (HD-MB03) | IC50 (D458) [µM] | Specificity Index relative to C8D1A, D458 (D458) | Specificity Index relative to HDF, D458 (D458) | IC50 (CHLA-01-Med) [µM] | Specificity Index relative to C8D1A, CHLA-01-Med (CHLA-01-Med) | Specificity Index relative to HDF, CHLA-01-Med (CHLA-01-Med) | viability of MB cells (MB cells) | viability of HDF normal cells (HDF [2]) | viability of C8-D1A normal cells (C8-D1A astrocytes)
1 | COc1cc2nccc(Oc3ccc(NC(=O)C4(C(=O)Nc5ccc(F)cc5)CC4)cc3)c2cc1OC [Cabozantinib, cabozantinib] | 4.1 ± 1.9 | 4 ± 2.2 | 8.3 ± 1.2 | 0.48 | 0.49 | 0.78 ± 0.2 | 5.13 | 5.26 | 5.1 ± 1.6 | 0.78 | 0.80 | 11.4 ± 2.1 | 0.35 | 0.36 | decreased the viability of most MB cells | no effect on the viability | no effect on the viability
2 | CCN(CC)CCNC(=O)c1c(C)[nH]c(/C=C2\C(=O)Nc3ccc(F)cc32)c1C [Sunitinib, sunitinib] | 1.8 ± 0.04 | 5.7 ± 2.2 | 7.9 ± 5.5 | 0.72 | 0.23 | 4.6 ± 0.3 | 1.24 | 0.39 | 4.2 ± 0.3 | 1.36 | 0.43 | 7.5 ± 0.8 | 0.76 | 0.24 | decreased the viability of most MB cells |  | strongly induced the death
